System: Tetramitus flagellates
Assay: Microscopic observations of swimming behavior and morphology of Tetramitus flagellates during exposure
Format: cell-based, Tetramitus rostratus
Details: 10 μg/mL

O=[N+]([O-])c1cc[n+]([O-])c2ccccc12 [4-nitroquinoline-n-oxide]
Swarming Behavior (exposure time 0.5 Hours): Normal
Swimming Velocity (% Slow) (exposure time 0.5 Hours, cell wraps: 10-20% Slow): 10-20%
Spinner Frequency (exposure time 0.5 Hours, cells rotating in a circular pattern): <1%
Appearance of Larger Morphs (exposure time 0.5 Hours, larger cells with abnormally-formed rostrum and large vacuoles): 1-5%
Appearance of Larger Morphs (exposure time 0.9 Hours): 5-10%
Spinner Frequency (exposure time 0.9 Hours): ˜5%
Swarming Behavior (exposure time 0.9 Hours): Delayed
Swimming Velocity (% Slow) (exposure time 0.9 Hours, cell wraps: 50-70% Slow): 50-70%
Appearance of Larger Morphs (exposure time 1.6 Hours): 10-20%
Spinner Frequency (exposure time 1.6 Hours): 5-10%
Swimming Velocity (% Slow) (exposure time 1.6 Hours, cell wraps: 100% Slow): 100%
Appearance of Larger Morphs (exposure time 4.5 Hours): 50%
Spinner Frequency (exposure time 4.5 Hours): 20%
Swimming Velocity (% Slow) (exposure time 4.5 Hours, cell wraps: 100% Slow): 100%
Spinner Frequency (exposure time 8.7 Hours): 70-90%
Swimming Velocity (exposure time 8.7 Hours): Very Slow
Swarming Behavior (exposure time 8.7 Hours, cell wraps over rows: No Swarming): No
Appearance of Larger Morphs (exposure time 8.7 Hours, cell wraps: 100% Rounded cells with large vacuoles): 100% Rounded cells
